Legend:
mouse P2X7R = target: T1, mouse P2X7R (Mus musculus, UniProt Q9Z1M0); assay: fluorometric Ca2+ assay (ATP-induced [Ca2+]i response) in HEKmP2X7 cells; format: cell-based; conditions: fluo-4, 1 mM ATP, read-out: Potency IC50 ± SEM, Mouse P2X7R
T1 construct: expressed in transfected cells
T1 sequence (Q9Z1M0 1-595): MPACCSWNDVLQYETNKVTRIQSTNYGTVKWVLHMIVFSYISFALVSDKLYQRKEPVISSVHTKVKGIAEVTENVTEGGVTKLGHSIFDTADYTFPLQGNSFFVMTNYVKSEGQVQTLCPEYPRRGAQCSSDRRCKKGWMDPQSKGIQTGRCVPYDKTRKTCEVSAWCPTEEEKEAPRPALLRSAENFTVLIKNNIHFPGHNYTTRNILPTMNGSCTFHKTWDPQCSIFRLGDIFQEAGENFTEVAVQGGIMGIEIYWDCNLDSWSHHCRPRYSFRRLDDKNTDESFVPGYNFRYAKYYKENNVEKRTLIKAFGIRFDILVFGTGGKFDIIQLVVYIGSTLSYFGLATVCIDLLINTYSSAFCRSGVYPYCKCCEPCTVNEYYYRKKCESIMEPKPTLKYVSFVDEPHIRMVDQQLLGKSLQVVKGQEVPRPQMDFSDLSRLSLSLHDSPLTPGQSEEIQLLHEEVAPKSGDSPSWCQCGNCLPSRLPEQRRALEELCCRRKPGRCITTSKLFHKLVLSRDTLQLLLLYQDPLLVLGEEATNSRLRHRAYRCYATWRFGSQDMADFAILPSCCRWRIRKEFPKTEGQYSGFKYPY
Experimental: Cells were grown in a humidified incubator at 37°C in an atmosphere supplemented with 5% CO2. […] HEK293mP2X7 were cultured in DMEM under similar conditions as described above, but containing 100 μg/ml zeocin (Invitrogen). […] Expression of the transgene was induced by supplementing the medium with 1 μg/ml tetracycline (Sigma-Aldrich, Taufkirchen, Germany) 24 h prior to the experiments. All fluorometric Ca^2+ assays in cell suspensions were performed in 384-microwell plates (Corning, No. 3655, Lowell, MA, USA) with a fluorescence-imaging microplate reader (POLARstar Omega, BMG Labtech, Offenburg, Germany) (for details, see [61, 68]). […] Microwell plates were repetitively scanned every 16 s in the fast scanning mode of the device. […] Data were normalized to the baseline values before ATP application (F/F0). […] ATP-solution was freshly prepared in Mg^2+-free HBS solution and adjusted to pH 7.4. Aliquots of stock solutions were stored at -20°C and freshly diluted with the appropriate HBS solution. […] Results are expressed as mean ± SEM. […] In the PTZ-T, the number of animals in the group with clonic seizures and the latency time were analysed using Fisher's exact probability test and the Mann-Whitney rank sum test, respectively. For multiple comparisons of the latency time a one-way ANOVA with the Holm-Sidak post hoc test was used. The influence of AFC on the plasma and brain concentrations of the antiepileptic drugs was statistical compared using the same procedure. In the PTZ-kindling model, the mean seizure stage within a group was calculated in relation to the number of PTZ-injections. Statistical comparison between vehicle- and compound-treated groups in this model was performed with two-way repeated measures ANOVA, followed by the Holm-Sidak post hoc test. […] In fully kindled rats, the calculated mean seizure stage within a group after vehicle- and compound-treatment were compared using a paired t-test. P < 0.05 was the accepted minimum level of significance.

PTZ-induced kindling = PTZ-induced kindling development; format: in vivo, rats; conditions: for mean seizure stages after 8-day treatment-free interval (21st-25th PTZ-injection, vehicle only): rats formerly treated with TIIAS 30, BBG 50, AFC 30 mg/kg i.p. or JNJ 15 mg/kg s.c.; for mean number of PTZ-injections needed to produce the first generalized seizure (≥ stage 3) vs vehicle / effect on PTZ-kindling development (mean seizure stages): rats; for mean number of PTZ-injections needed to produce the first generalized seizure (≥ stage 3) vs vehicle: TIIAS 30, BBG 50, AFC 30 mg/kg i.p., JNJ 15 mg/kg s.c.; for effect on PTZ-kindling development (mean seizure stages): TIIAS 30 and BBG 50 mg/kg i.p. 45 min, AFC 30 mg/kg i.p. 45 min, JNJ 15 mg/kg s.c. 30 min before each PTZ 35 mg/kg i.p., every 48 h, 20 injections
Experimental: For PTZ-kindling, the initial sub-convulsive dose of PTZ (35 mg/kg) was injected i.p. once every 48 h (on Monday, Wednesday, and Friday, three times a week). After vehicle or vehicle/compound pre-treatment, PTZ was injected and the rats were individually observed for 30 min. Behavioural seizure responses were scored according to a defined graduation from stage 0 to stage 5. […] Rats received 20 successive PTZ-kindling stimulations. After an 8-day treatment-free interval, the animals were re-tested with PTZ (21st-25th injection) and vehicle pre-treatment without the compounds. […] Additional care was taken the hours following generalized tonic-clonic seizures and status epilepticus by providing the animals with soft food pellets and tap water if required. All efforts were made to minimize suffering. […] Chemicals, Toronto, Canada) was slowly added. The pH was adjusted with 1N NaOH (similar amount of NaOH as HCl), all with continuous stirring. […] The drug solutions or suspensions were prepared immediately before use; all doses refer to the salts. Animals in the control group received equivalent volumes of the vehicle (in mice always 10 ml/kg, in rats 1 ml/kg [JNJ], 3 ml/kg [AFC] or 4 ml/kg [BBG, TIIAS], depending on the solubility of the different compounds). Doses and peak time effects were selected on the basis of effective doses from corresponding in vivo studies in the literature: BBG (e.g.), tanshinone IIA (e.g.) and from manufacturer's experimental data: AFC, JNJ (see, [80]). Data were analysed using SigmaPlot (vers. 12.0, Systat Software, Erkrath, Germany) and SPSS (IBM SPSS Statistics 20, […], Germany), respectively. Results are expressed as mean ± SEM. […] In the MES-T, the current intensity inducing tonic hindlimb extensions in 50% of the mice (CC50 values with confidence limits for 95% probability) and the statistical significance was calculated using Probit analysis (SPSS). […] In the PTZ-T, the number of animals in the group with clonic seizures and the latency time were analysed using Fisher's exact probability test and the Mann-Whitney rank sum test, respectively. For multiple comparisons of the latency time a one-way ANOVA with the Holm-Sidak post hoc test was used. The influence of AFC on the plasma and brain concentrations of the antiepileptic drugs was statistical compared using the same procedure. In the PTZ-kindling model, the mean seizure stage within a group was calculated in relation to the number of PTZ-injections. Statistical comparison between vehicle- and compound-treated groups in this model was performed with two-way repeated measures ANOVA, followed by the Holm-Sidak post hoc test. The mean number of PTZ-injections needed to produce the first generalized seizure (≥ stage 3 convulsions) in the vehicle- versus compound-treated groups was statistically compared using a Mann-Whitney rank sum test. In fully kindled rats, the calculated mean seizure stage within a group after vehicle- and compound-treatment were compared using a paired t-test. P < 0.05 was the accepted minimum level of significance.

Row | Structure (SMILES) | IC50 (mouse P2X7R) [µM] | mean seizure stages after 8-day treatment-free interval (21st-25th PTZ-injection, vehicle only) (PTZ-induced kindling) | mean number of PTZ-injections needed to produce the first generalized seizure (≥ stage 3) vs vehicle (PTZ-induced kindling) | effect on PTZ-kindling development (mean seizure stages) (PTZ-induced kindling)
1 | CCOc1ccc(Nc2ccc(/C(=C3C=C/C(=[N+](/CC)Cc4cccc(S(=O)(=O)[O-])c4)C=C/3C)c3ccc(N(CC)Cc4cccc(S(=O)(=O)O)c4)cc3C)cc2)cc1 [Brilliant Blue G] | 0.53 ± 0.15 | no differences of the mean seizure stages | required significantly more PTZ-injections | moderate, yet significant retarding effect on kindling development
2 | O=C(NCC1(N2CCN(c3ccccc3)CC2)CCOCC1)c1cccnc1Sc1ccccc1 [JNJ-47965567, N-[[4-(4-phenyl-piperazin-1-yl)tetrahydro-2H-pyran-4-yl]-methyl]-2-(phenyl-thio) nicotinamide] | 0.01 ± 0.001 | persisted after compound treatment ceased | required significantly more PTZ-injections | significantly reduced the PTZ-kindling development
3 | Cc1c(S(=O)(=O)[O-])oc2c1C(=O)C(=O)c1c-2ccc2c1CCCC2(C)C.[Na+] [Tanshinone TIIAS, tanshinone IIS sulfonic sodium] | ≥ 6 | no differences of the mean seizure stages | required significantly more PTZ-injections | moderate, yet significant retarding effect on kindling development

— article PMC4900628, “Critical Evaluation of P2X7 Receptor Antagonists in Selected Seizure Models” (PLoS ONE, 2016)
